Test results published in the supplement of paper PMC11997997.

Experiments:
[1] = tested on: murine bone marrow-derived macrophages; assay: area under cytotoxicity dose-response curve (AUC (% cytotoxicity x dose, relative)); higher = more cytotoxic; details: duration: 6 days; dose range: 0.13-80 uM, 8 points
Summary of the method: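 Cytotoxicity is given as the area under the dose–response curve, computed in GraphPad Prism version 10. Primary murine bone marrow-derived macrophages in opaque 384-well plates received an 8-point, 2.5-fold dilution series (final 80–0.13 μM) for 6 days at 37 °C in 5% CO2. Viability was measured by Promega's CellTiter-Glo luminescence assay, with percent cytotoxicity normalised to vehicle and positive control wells.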

[2] = tested on: Mycobacterium tuberculosis CDC1551 (intracellular, in murine BMDM); assay: area under intracellular growth-inhibition dose-response curve (AUC (% inhibition x dose, relative)); higher = more potent; details: duration: 6 days; dose range: 0.13-80 uM, 8 points
Summary of the method: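 Luciferase-expressing M. tuberculosis CDC1551 was used at multiplicity of infection 1 for 1 h to infect primary murine bone marrow-derived macrophages in 384-well opaque plates, 24 h after seeding. Treatment followed for 6 days with an 8-dose, 2.5-fold series at final concentrations of 80–0.13 μM. GraphPad Prism was used to calculate the area under the growth-inhibition dose–response curve from Bright-Glo luciferin readings normalised to a reference drug control and the lowest-concentration wells.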

Structure (SMILES)	area under cytotoxicity dose-response curve [1]	area under intracellular growth-inhibition dose-response curve [2]
Cc1ccccc1CNC(=O)c1ccccc1	38.3	213
C/C(=N\NC(=O)c1ccncc1)c1ccc(N2CCOCC2)cc1	16.1	255
OC(CCCC(O)c1ccccc1)c1ccccc1 (centres undefined)	31.6	203
CC(=O)Nc1ccc(S(=O)(=O)Nc2ccc(N3CCCCC3)cc2)cc1	16.6	27.8
O=c1c2ccsc2ncn1Cc1ccc(Cl)cc1	15	120
CC(=O)c1c(C)[n+]([O-])c2cc(F)c(F)cc2[n+]1[O-]	13.7	45.9
Cc1ccc2[nH]c(/C(C#N)=C\c3ccc([N+](=O)[O-])o3)nc2c1	76.5	8.24
O=C(Nc1ccc(N2CCN(C(=O)c3ccc(Cl)cc3)CC2)cc1)c1ccc([N+](=O)[O-])o1	34.5	246
CCC(=O)NC(=S)Nc1ccc(NC(=O)c2ccccc2[N+](=O)[O-])cc1	32.7	267
O=C(CSc1ccccc1F)NNC(=O)c1ccncc1	38.8	230
CCCCCCn1c(=O)c(C(=O)Nc2ncccc2C)c(O)c2ccccc21	47.2	237
CS(=O)(=O)N1CCN(C(=O)CCC2CCCC2)CC1	43.1	159
CC(=O)c1cc(NC(=O)c2cccc(C(F)(F)F)c2)c(=O)oc1/C=C/N(C)C	64.4	194
O=C(NN=C1C2CC3CC(C2)CC1C3)c1ccncc1	103	238
CC[C@@H](C)[C@@H]1CN([C@@H](CN2CCC[C@H]2CN2C(N)=NC[C@H]2C(C)C)C(C)C)C(=N)N1CCCC1CCCC1	32.4	191
O=C(Cc1ccc(Br)cc1)N1CCCC1	< 0	208
CCn1c(SCc2ccc(C(=O)OC)o2)nnc1-c1c[nH]c2ccccc12	20.1	117
CN(C)c1ccc(/C=N/CC2(O)CCOC(C)(C)C2)cc1 (centres undefined)	103	1.75
CCSc1nnc(NC(=O)[C@H](C)N2C(=O)C3CC=CCC3C2=O)s1 (some centres undefined)	< 0	129
COc1ccc(Cl)cc1NC(=O)C(C)OC(=O)Cn1cc(C(F)(F)F)ccc1=O (centres undefined)	119	24.1
O=C(COc1ccccc1)NC1CCCCC1	80.6	260

Structure (SMILES)	area under cytotoxicity dose-response curve [1]	area under intracellular growth-inhibition dose-response curve [2]
Cc1c(Cl)sn(-c2ccc(Cl)cc2)c1=O	60.1	130
CC[n+]1c(/C=C/N(C)c2ccccc2)n(-c2ccccc2)c2ccc(-c3nc4ccccc4s3)cc21.[I-]	146	162
CNc1ncnc2c1ncn2[C@@H]1O[C@H](CO)[C@@H](O)[C@H]1O	32.7	39.4
CC(NC(=O)c1ccccc1)c1ccc(F)cc1 (centres undefined)	< 0	265
O=C(NCc1cccs1)c1ccc(Cl)s1	2.8	212
CN(Cc1ccccc1)C(=O)CCc1ccccc1	< 0	181
CCOc1ncnc2c1oc1nc(CC(C)C)c3c(c12)CC(C)(C)OC3	63.6	115
CSc1ccc(NC(N)=S)cc1	35.6	248
CCCC(=O)N1CCN(c2ccc(NC(=O)c3ccc([N+](=O)[O-])o3)cc2)CC1	129	107
CC1CCCCC1NC(=O)c1cc2ccccc2o1 (centres undefined)	32.6	258
Cc1c(Cl)cccc1NC(=S)NCC(O)c1ccccc1 (centres undefined)	81.9	158
Cc1ccc(C)c(NC(=N)Nc2nc(C)cc(C)n2)c1	< 0	218
O=C(O)/C=C\C(=O)O.OC(CCCN1CCCCC1)(c1ccccc1)c1ccc(C(F)(F)F)cc1 (centres undefined)	32.3	214
CC(=O)Nc1sc(N/N=C/c2ccc(O)cc2)nc1-c1ccc(C)cc1	84.1	181
O=C(NCc1ccco1)c1cc2ccccc2o1	135	105
O=C(NC(=S)Nc1ccc(-c2nc3ncccc3o2)cc1)c1ccccc1F	< 0	138
CCC(=O)NC(=S)Nc1ccc(NC(=O)c2ccc(Br)o2)cc1	58.2	211
Cc1nnc(SCC2=C(C(=O)O)N3C(=O)C(NC(=O)C(C)n4nc(C(F)(F)F)cc4C)C3SC2)s1 (centres undefined)	2.61	176
CCC(=O)N1NC(=C2C(=O)N(C)C(=O)N(C)C2=O)CC1c1ccccc1 (centres undefined)	23.3	122
CCOC(=O)c1c(-c2ccccc2)nc2ccc(C)cn12	58.7	203
CC1CCC(C(C)C)C(OC(=O)C[n+]2cc(-c3ccc(Cl)cc3)n3c2CCCCC3)C1.[Cl-] (centres undefined)	107	94.6

Structure (SMILES)	area under cytotoxicity dose-response curve [1]	area under intracellular growth-inhibition dose-response curve [2]
Cc1nnc(SCC2=C(C(=O)O)N3C(=O)C(NC(=O)COc4ccccc4)C3SC2)s1 (centres undefined)	73.9	151
CCCCN(C(=O)CSc1nnc(-c2ccccc2)o1)c1c(N)n(CCC)c(=O)[nH]c1=O	< 0	65.6
BrC(=C\c1ccccc1)/C=N/n1cnnc1	97.5	5.21
COc1ccc2nc(C)cc(N/N=C/c3cccc(OC)c3O)c2c1	69	124
C[n+]1c(-c2ccccc2)c2cc(N)ccc2c2ccc(N)cc21.[Br-]	30.1	59.8
Cc1ccc(C(=O)N2CCCC2)cc1Br	8.65	166
O=C(Nc1ccc(NC(=S)NC(=O)c2ccccc2F)cc1)c1cccs1	13.8	268
CN(C)CCSc1nc2cc(S(=O)(=O)N3CCCCC3)ccc2o1	11.5	1.9
CNc1nc(SCc2ccc(C)cc2)nc2c1CCCC2	19.6	274
CCOC(=O)CCCc1ccc(/C(C)=N/NC(N)=S)cc1	65.1	156
COc1ccc(OC)c(/C=N/NC(=O)c2ccncc2)c1	66.9	254
COc1ccc(NS(=O)(=O)c2ccc(N3CCOCC3)c(N)c2)cc1	< 0	34.5
Cc1ccc2c(c1)sc(-c1ccc(N(C)C)cc1)[n+]2C.[I-]	125	< 0
COc1cccc2c1nc(C)c1cc(C)oc12	< 0	121
O=C(COC(=O)c1ccccc1NCCO)NCC1CCCCC1	58.4	151
O=[N+]([O-])C(=C\Nc1ccccc1O)/C=N/c1ccccc1O	3.94	57.2
NC(=S)N/N=C/c1ccc2c(c1)OCCO2	< 0	263
CC[C@H]1OC(=O)[C@H](C)[C@@H](O[C@H]2C[C@@](C)(OC)[C@@H](O)[C@H](C)O2)[C@H](C)[C@@H](O[C@@H]2O[C@H](C)C[C@H](N(C)C)[C@H]2O)[C@](C)(OC)C[C@@H](C)C(=O)[C@H](C)[C@@H](O)[C@]1(C)O	48.5	246
CCOc1c(Cl)cc(/C=N/NC(N)=S)cc1OC	< 0	266
CC(C)(C)c1ccc(OCCNC(=O)c2nc[nH]n2)cc1	< 0	233
